Experiment [1] concerns Klebsiella pneumoniae. Briefly: Antibacterial activity against Klebsiella pneumoniae ATCC 29665 assessed as minimum inhibitory concentration incubated for 16 to 18 hrs by broth microdilution method. It counts as functional. As to conditions: time 16-18 hrs.
The test system of experiment [2] is Enterococcus faecalis. Briefly: Antibacterial activity against Enterococcus faecalis ATCC 29212 assessed as minimum inhibitory concentration incubated for 24 hrs by broth microdilution method. Format: functional.

Structures are written as SMILES. In brackets after ≈: the same amount, converted by molar mass.

As to `CCCNC(=O)[C@H]1O[C@@H](n2ccc(N)nc2=O)C=C[C@@H]1NC(=O)C[C@@H](N)CCN(C)C(=N)N`, the MIC90 in experiment [1] stood at 128 µg/mL (≈ 276 µM). As to `CNC(=O)[C@H]1O[C@@H](n2ccc(N)nc2=O)C=C[C@@H]1NC(=O)C[C@@H](N)CCN(C)C(=N)N`, the MIC90 in experiment [2] amounted to 16 µg/mL (≈ 36.7 µM). The same measure, in the same setting: with `CN(C)C(=O)[C@H]1O[C@@H](n2ccc(N)nc2=O)C=C[C@@H]1NC(=O)C[C@@H](N)CCN(C)C(=N)N` the figure was 16 µg/mL (≈ 35.6 µM); with `CN(CC[C@H](N)CC(=O)N[C@H]1C=C[C@H](n2ccc(N)nc2=O)O[C@@H]1C(=O)O)C(=N)N` [BLASTICIDIN_S], 32 µg/mL (≈ 75.7 µM).

Values taken from ChEMBL document CHEMBL5344464, “Forgotten Natural Products: Semisynthetic Development of Blasticidin S As an Antibiotic Lead” (ACS Med Chem Lett, 2024).
